Consider 13 molecules from paper PMC5382548 (Scientific Reports, 2015).

One test has as its system KRAS21R G4. Nature of the test: FRET melting assay, KRAS21R G4. It counts as binding, human. The note with it: G4 0.2 μM, ligand 1 μM, K-cacodylate buffer pH 7.4, 60 mM K+. On the procedure: (§1) Fluorescence resonance energy transfer (FRET) studies with DNA sequences labelled at the 5′ and 3′ ends, were conducted to evaluate the G4 DNA stabilizing properties of IQcs (at 0.1 to 5 μM ligand concentrations). The G4-forming sequence KRAS21R[11], together with T-loop, a 26-mer hairpin double-stranded DNA (ds-DNA) sequence were used in the first screening assay. Reproducible IQc dose-dependent melting curves (Sup. Inf.; Figure S3) and stabilization temperature (ΔTm) values were obtained (Figure 2 and Table S5).
(§2) Figure 2 FRET stabilization temperatures (ΔTm) of KRAS21R G4 and hairpin ds-DNA (T-loop) at 0.2 μM, in K-cacodylate buffer (pH = 7.4, 60 mM K^+), stabilized by IQc derivatives and TMPyP4 at 1 μM. ^a) SD ≤ 0.2°C. TEXT PRINTED IN THE PICTURE: TMPyP4: ΔTm / °C ^a) (T-Loop): 16.0; ΔTm / °C ^a) (KRAS21R): 25.1 | 3e: ΔTm / °C ^a) (T-Loop): 6.5; ΔTm / °C ^a) (KRAS21R): 22.0 | 3d: ΔTm / °C ^a) (T-Loop): 5.6; ΔTm / °C ^a) (KRAS21R): 19.9 | 2d: ΔTm / °C ^a) (T-Loop): 6.1; ΔTm / °C ^a) (KRAS21R): 15.1 | 2a: ΔTm / °C ^a) (T-Loop): 1.5; ΔTm / °C ^a) (KRAS21R): 4.4 […]
(§3) Oligonucleotide sequences were purchased from Eurofins MWG Synthesis GmbH, Germany or STAB VIDA Genomics Lab, Caparica, Lisbon, Portugal. The labelled oligonucleotides used in the FRET assays had attached the donor fluorophore FAM (6-carboxyfluorescein) and the acceptor fluorophore TAMRA (6-carboxytetramethylrhodamine): KRAS21R: 5′-FAM-[…]-TAMRA-3′; KRAS32R: 5′-FAM-[…]-TAMRA-3′; UTR-1: 5′-FAM-GCGGCGGCGGAGG-TAMRA-3′; UTR-2: 5′-FAM-[…]-TAMRA-3; T-Loop:5′-FAM-[…]-TAMRA-3′; F21T: 5′-FAM-[…]-TAMRA-3′. Non-labelled oligonucleotides were used in FRET competition assays and in the spectroscopic studies: ds26: - d(5′-CAATCGGATCGAATT CGATCCGATTG-3′); KRAS21R: 5′-[…]-3′; HT21: 5′-[…]-3′. Each oligonucleotide was initially diluted to a storage solution at 100 μM in nuclease-free water (not DEPC-treated), purchased from Ambion Applied Biosystems UK.
(§4) The ability of indolo[3,2-c]quinolines to stabilize DNA sequences was investigated using a Fluorescence Resonance Energy Transfer (FRET) assay as reported elsewhere.
(§5) Figure S3 (cont.)| Concentration-dependent (0.1, 0.5, 1, 2, 3, 4 and 5 µM) FRET melting profiles of G4 structures and T-loop DNA with indolo[3,2-c]quinoline derivatives 1a, 2a-g and 3d-j in K-cacodylate buffer (pH 7.4, 60 mM K+). […]
(§6) Table S5 | FRET stabilization temperatures (ΔTm) of G4s sequences and ds-DNA (0.2 µM) stabilized by […]

Test [1] deals with T-loop, a 26-mer hairpin double-stranded DNA. Nature of the test: FRET melting assay, T-loop hairpin ds-DNA. The format is binding. The conditions noted are these: ds-DNA 0.2 μM, ligand 1 μM, K-cacodylate buffer pH 7.4, 60 mM K+. As to the method:
as §1, §2, §3, §4, §5, §6

For the next test, the system named is HCT116 (colon). Kind of test: MTS short-term cytotoxicity assay, HCT116. The format is cell-based, human. The note with it: Homo sapiens, HCT-116; MTS assay, 72 h; read-out: IC50 HCT116. On the procedure:
(§7) Short-term anti-proliferative assays were carried out by two different assays using a panel of human cancer and non-malignant human cell lines. […] The transformed human embryonic kidney cell line HEK293T (wt KRAS) was sensitive to all tested drugs, including TMPyP4, a cationic porphyrin established as a G4 ligand, as well as the anticancer drug 5-fluorouracil (5-FU).
(§8) HCT116 human colon carcinoma cells, SW620 human colorectal adenocarcinoma and HEK293 T human embryonic kidney cells were grown in Dulbecco's modified Eagle's medium (DMEM) supplemented with 10% fetal bovine serum, and 1% antibiotic/antimycotic (Invitrogen, Grand Island, NY, USA) and maintained at 37°C in a humidified atmosphere of 5% CO2. Cells were seeded in 96 well plates at 5.000 cells/well. Twenty-four hours after cell plating, media was removed and replaced with fresh media containing test compounds and 5-FU (Sigma), a common cytotoxic agent used in colon cancer treatmen, or vehicle control (DMSO). Following 72 h of compound exposure, cell viability was evaluated using the CellTiter 96 AQueous Non-Radioactive Cell Proliferation Assay (Promega, Madison, WI, USA), using 3-(4,5-dimethylthiazol-2-yl)-5-(3-carboxymethoxyphenyl)-2-(4-sulfophenyl)-2H-tetrazolium, inner salt (MTS) as previously described. Cell viability data were expressed as mean ± SEM or mean ± SD from at least three independent experiments. IC50 and IC65 values were determined using GaphPad Prism v.5.00 (GraphPad Software). (Performed at Cell Function and Therapeutic Targeting Group, iMed.ULisboa)
In general terms: Formazan colour is commonly taken as a measure of viable cells.

The test system of another test is SW620 (metastatic colon). Kind of test: MTS short-term cytotoxicity assay, SW620. The format is cell-based. The conditions noted are these: Homo sapiens, SW-620; MTS assay, 72 h; read-out: IC50 SW620. On the procedure:
as §7, §8

The test system of test [2] is HEK293T (embryonic kidney). Kind of test: MTS short-term cytotoxicity assay, HEK293T. The conditions noted are these: Homo sapiens, HEK-293T; MTS assay, 72 h; read-out: IC50 HEK293T. It counts as cell-based. As to the method:
as §7, §8

Test [3] deals with colon cancer cell lines with mutated KRAS. Kind of test: Anti-proliferative activity, colon cancer cell lines with mutated KRAS. The format is cell-based. The conditions noted are these: Homo sapiens; range over HCT116 and SW620.
From the text: These differences may be due to differing effects on cellular proliferation mechanisms, on cellular uptake and/or intracellular distribution. Assuming a passive diffusion membrane transport for IQcs, compound 2d is expected to accumulate more inside cells due to its predicted higher lipophilicity than compounds with an additional protonated basic group at physiologic pH (3d and 3e). Similarly, the tetra-cationic porphyrin TMPyP4, which is known to have low cell-membrane permeability, gave higher IC50 values.
as §8, with “Cells were seeded in 96 well plates at 5.000 cells/well. Twenty-four hours after cell plating, media was removed and replaced with fresh media containing test compounds and 5-FU (Sigma), a common cytotoxic agent used in colon cancer treatmen, or vehicle control (DMSO).” left out, “(Performed at Cell Function and Therapeutic Targeting Group, iMed.ULisboa)” left out

The subject of test [4] is SW620 metastatic colon cancer cells. Nature of the test: Guava ViaCount assay, SW620. It counts as cell-based, human. The note with it: IC65 concentration, 72 h. The text has this: The ability of IQcs to induce cell death in colon cancer cell lines with different genotypes (HCT116 and SW620) and in the non-malignant cell line HEK293T was studied by a Guava Via Count assay and compared with the behaviour of 5-FU and TMPyP4 at equitoxic concentrations (IC50 and IC65). Results in Figure 7 show dose-dependent induction of cell death, mainly by apoptosis, by all tested compounds in the HCT116 colon cancer cell line. […] In SW620 metastatic colon cancer cells, cell death induction was highly dependent on the number and position of side chains in IQc compounds. […]
Figure 7 Evaluation of the effect of IQc on cell viability using the ViaCount assay. […] Results are expressed as the mean percentage (%) of viable (white), mid-apoptotic (grey) and dead (black) cells ± SEM, of at least three different experiments, for (a) IC50, and for (b) IC65 compound concentrations. a, p < 0.05; b, p < 0.01 from DMSO (vehicle control); c, p < 0.05; and d, p < 0.01 from 5-FU. […]
Taqman Real-time PCR reactions were performed using 1.5 µg of total RNA, using High Capacity RNA to cDNA kit, according to the manufacturer`s instruction. […] The comparative threshold cycle method was used to calculate the amplification factor, where the threshold cycle (Ct) is defined as the cycle number at which the fluorescence passes the fixed threshold intensity level. […]

Where only a bound is given, the exact number is not on record here.

As to `Brc1ccc2ncc3c4ccccc4[nH]c3c2c1` [compound 1], the results for the “FRET stabilization temperature ΔTm (KRAS21R)” value in the test on KRAS21R G4 and with KRAS21R G4 (listed as 1a) were “reduced or negligible ability to stabilize the KRAS21R G4” and 0.7 °C, respectively. The “FRET stabilization temperature ΔTm (T-loop)” value in test [1] turned out to be 0.4 °C. Besides, the IC50 (in general, the concentration that gives 50% inhibition) in the test with HCT116 (colon) turned out to be 9.91 µM; in the test on SW620 (metastatic colon) it was 10.7 µM; in test [2] it was 8.03 µM.
As to `Brc1ccc2c3cn(Cc4ccccc4)c4ccc(Br)cc4c-3nc2c1` [3c], the “FRET stabilization temperature ΔTm (T-loop)” value in test [1] turned out to be 0.3 °C.
In the case of `C[n+]1cc2c3cc(NCCCN4CCOCC4)ccc3[nH]c2c2cc(NCCCN3CCOCC3)ccc21` [3f], in the test with KRAS21R G4, the “FRET stabilization temperature ΔTm (KRAS21R)” value is 14.1 °C. Further, the “FRET stabilization temperature ΔTm (T-loop)” value in test [1] came to 4.9 °C.
Consider `CCN(CC)CCCNc1ccc2c(c1)[nH]c1c2c[n+](Cc2ccccc2)c2ccc(NCCCN(CC)CC)cc12.[Cl-]` [3j], for which the “FRET stabilization temperature ΔTm (KRAS21R)” value with KRAS21R G4 stood at 16.8 °C. Also, the “FRET stabilization temperature ΔTm (T-loop)” value in test [1] worked out at 5.2 °C.
Turning to `O=c1[nH]cc(F)c(=O)[nH]1` [5-FU, 5-fluorouracil, reference compound], the IC50 in test [3] lay within 2.38 to 5.39 µM. The “Cell death induced, SW620” value in test [4] is over 20%.
For `C[n+]1cc2c3ccccc3[nH]c2c2cc(NCCCN3CCOCC3)ccc21` [2f], in the test on KRAS21R G4, the “FRET stabilization temperature ΔTm (KRAS21R)” value stood at 10.1 °C. Besides, the “FRET stabilization temperature ΔTm (T-loop)” value in test [1] amounted to 3.4 °C.
With `C[n+]1cc2c3ccccc3[nH]c2c2cc(NCCCN3CCCCC3)ccc21` [2e], in the test on KRAS21R G4, the “FRET stabilization temperature ΔTm (KRAS21R)” value was found to be 13.4 °C. The “FRET stabilization temperature ΔTm (T-loop)” value in test [1] amounted to 5.2 °C.
In the same order, the values of `CCN(CC)CCCC(C)Nc1ccc2[nH]c3c(c[n+](C)c4ccc(NC(C)CCCN(CC)CC)cc34)c2c1.[Cl-]` (centres unmarked) [3h] are 11.8 °C and 1.7 °C.
In the same order, the values of `C[n+]1cc2c3ccc(NCCCN4CCOCC4)cc3[nH]c2c2cc(NCCCN3CCOCC3)ccc21` [3g] are 13.2 °C and 2.9 °C.
With `CCN(CC)CCNc1ccc2c(c1)c1[nH]c3ccccc3c1c[n+]2C` [2b], the “FRET stabilization temperature ΔTm (KRAS21R)” value in the test on KRAS21R G4 amounted to 12.6 °C. Also, the “FRET stabilization temperature ΔTm (T-loop)” value in test [1] was 7.2 °C.
In the same order, the values of `CCN(CC)CCCC(C)Nc1ccc2c(c1)c1[nH]c3ccccc3c1c[n+]2C.[Cl-]` (centres unmarked) [2g] are 15.4 °C and 1.9 °C.
In the case of `CCN(CC)CCCC(C)Nc1ccc2c(c1)[nH]c1c2c[n+](C)c2ccc(NC(C)CCCN(CC)CC)cc12.[Cl-]` (centres unmarked) [3i], the “FRET stabilization temperature ΔTm (KRAS21R)” value with KRAS21R G4 turned out to be 13.9 °C. The “FRET stabilization temperature ΔTm (T-loop)” value in test [1] came to 2.4 °C.
In the same order, the values of `CC(C)NCCCNc1ccc2c(c1)c1[nH]c3ccccc3c1c[n+]2C` [2c] are 14.5 °C and 9.1 °C.
